From patent US20170216240A1, “METHODS FOR MODULATING IKS CHANNEL ACTIVITY” (UNIVERSITY OF MIAMI, priority 2014, published 2017)
Several values for one entry are separate records, joined by “and”; a condition that tells them apart may be missing. Equal entries are not always repeated. Where two headings read alike, the source gives them in different places.

Legend:
[1] = target: T1, Kv7.1/KCNE1 (Homo sapiens, UniProt P51787); assay: G(V) shift of Kv7.1 co-expressed with KCNE1 in Xenopus oocytes, two-electrode voltage-clamp; type: cell-based; conditions: for pKa: human, Xenopus oocytes co-expressing human Kv7.1 and KCNE1, read-out: apparent pKa (pH of c0.5); for ΔV1/2 ± SEM (G(V) shift): Kv7.1/E1
T1 construct: expressed in transfected cells; host or cells: Xenopus laevis oocytes (cRNA co-injection)
From the text: (§1) cDNAs encoding human Kv7.1 (GEnBAnk Acc. No. NM_000218) and KCNE1 (NM_000219) were subcloned into the expression vectors pGEM or pXOOM, containing the 5′- and 3′-untranslated regions for Xenopus laevis β-globin as well as a poly-A segment (Jespersen et al., Biotechniques 32, 536-538, 540 (2002)). The truncated KCNE1 construct KCNE1ΔC was constructed by introducing a Stop codon at position 67 using Quikchange site-directed mutagenesis kit (Qiagen). The construct was fully sequenced to ensure proper mutation and absence of unwanted mutations (sequencing by Genewiz). The concatemers E1-Kv7.1-Kv7.1 and E1-Kv7.1 were provided by Dr. R. S. Kass at Columbia University, and can be prepared as described in Chan et al. Journal of General Physiology 132(2), 135-144, (2012)). The E1-Kv7.1 construct was made by linking the C-terminus of KCNE1 to the N-terminus of KCNQ1. The E1-Kv7.1-Kv7.1 construct was made by digesting the E1-Kv7.1 and a Kv7.1-Kv7.1 dimer with Xho1 and inserting the 2-kb fragment from the Kv7.1-Kv7.1 dimer digest into the cut KCNE1-Kv7.1 construct. The DNA encoding E1-Kv7.1-Kv7.1 and E1-Kv7.1 were in the pGEM vector and contained mutations to make the constructs suitable for voltage-clamp fluorometry recordings (Wang et al., J Biol Chem 273, 34069-34074 (1998)). The original KCNE1 and Kv7.1 sequences were therefore removed, one at a time, from the pGEM vector using different restriction enzymes (New England Biolabs). Sequences were separated using gel electrophoresis and harvested using Qiagen gel extraction kit. Corresponding wild type sequences were ligated into the construct using T4 Ligase (New England Biolabs). To ensure correct sequence the constructs were sequenced (Genewiz) and tested with different restriction enzymes in combination with gel electrophoresis to measure length and conformation of the gene. cRNA for injection of all constructs was prepared from linearized DNA using the T7 mMessage mMachine transcription kit (Ambion) according to the manufactures instructions. RNA quality was checked by gel electrophoresis, and RNA concentrations were quantified by UV spectroscopy.
(§2) Xenopus laevis oocytes were isolated and maintained (Bentzen, B. H. et al. Neuropharmacology 51, 1068-1077 (2006)). Approximately 50 nl cRNA (50 ng Kv7.1, KCNE1-Kv7.1-Kv7.1 or KCNE1-Kv7.1 alternatively 25 ng Kv7.1 together with 8 ng KCNE1 or KCNE1ΔC) was injected into each oocyte using a Nanojet microinjector (Drummond). Electrophysiological experiments were made 2-5 days after injection. Currents were measured at room temperature with the two-electrode voltage-clamp technique (CA-1B Dagan amplifier). Currents were sampled at 1-3.3 kHz, filtered at 500 Hz, and not leakage corrected. […] A control solution containing (in mM): 88 NaCl, 1 KCl, 15 HEPES, 0.4 CaCl2, and 0.8 MgCl2 was used. NaOH was added to adjust pH to 7.4, yielding a final sodium concentration of about 100 mM. The holding voltage was generally set to −80 mV. Activation curves were generally elicited by stepping to test voltages between −110 and +60 mV (2-4 s durations and 10 mV increments) followed by a tail voltage of −30 mV. For recordings of Kv7.1 at pH 9 and pH 10, the holding voltage was set to more negative voltages because the largest DHA-induced shifts induced channel opening already at −80 mV. […] Therefore, in arachidonyl amine experiments a brief hyperpolarizing pulse of 50 ms to −120 mV was introduced between the test voltage and the tail voltage to relief the channels from inactivation.
(§3) Test compounds were dissolved in 99.5% ethanol to a concentration of 100 mM and stored at −20° C. (Börjesson et al., Biophys J 95, 2242-2253 (2008); Börjesson et al., Biophys J 98, 396-403 (2010)). Shortly before experiments, test compounds were diluted in control solution to the desired test concentration. Pure control solution was added to the bath using a gravity-driven perfusion system. […]

[2] = in vitro; conditions: human, Caco-2
[3] = system: intact guinea pig hearts; assay: Restoration of QT interval in intact hearts with E4031-induced Long QT; conditions: E4031
From the text: Long QT syndrome was induced in intact guinea pig hearts by administration of the drug E4031, a HERG channel blocker.

[4] = target: Kv7.1 (Homo sapiens, UniProt P51787); assay: G(V) shift of Kv7.1 expressed in Xenopus laevis oocytes, two-electrode voltage-clamp; type: cell-based
From the text: as §1, §2, §3

[5] = target: KCNE1-Kv7.1 (Homo sapiens, UniProt P15382+P51787); assay: G(V) shift of KCNE1-Kv7.1 concatemer (4:4 stoichiometry) in Xenopus oocytes; type: cell-based; conditions: 70 μM; for ΔV1/2 ± SEM (G(V) shift): E1-Kv7.1
From the text: (§4) As used herein, the terms “KCNE1-Kv7.1” and “KCNE1-Kv7.1-Kv7.1” refer to concatemers of Kv7.1 and KCNE1 in 4:4 and 4:2 stoichiometry, respectively.
as §1, with “The original KCNE1 and Kv7.1 sequences were therefore removed, one at a time, from the pGEM vector using different restriction enzymes (New England Biolabs). Sequences were separated using gel electrophoresis and harvested using Qiagen gel extraction kit. Corresponding wild type sequences were ligated into the construct using T4 Ligase (New England Biolabs). To ensure correct sequence the constructs were sequenced (Genewiz) and tested with different restriction enzymes in combination with gel electrophoresis to measure length and conformation of the gene. cRNA for injection of all constructs was prepared from linearized DNA using the T7 mMessage mMachine transcription kit (Ambion) according to the manufactures instructions.” left out
(§5) Xenopus laevis oocytes were isolated and maintained (Bentzen, B. H. et al. Neuropharmacology 51, 1068-1077 (2006)). […] Currents were measured at room temperature with the two-electrode voltage-clamp technique (CA-1B Dagan amplifier). […]
(§6) Xenopus laevis oocyte data were acquired using either Pulse software (HEKA) or Clampex 10.2 (Axon Instruments), and analyzed with Clampfit 10 (Axon Instruments) and GraphPad Prism 4 (GraphPad Software). […]

[6] = target: KCNE1-Kv7.1-Kv7.1 (Homo sapiens, UniProt P15382+P51787); assay: G(V) shift of KCNE1-Kv7.1-Kv7.1 concatemer (4:2 stoichiometry) in Xenopus oocytes; type: cell-based; conditions: 70 μM; for ΔV1/2 ± SEM (G(V) shift): E1-Kv7.1-Kv7.1
From the text: as §4
as §1, with “The original KCNE1 and Kv7.1 sequences were therefore removed, one at a time, from the pGEM vector using different restriction enzymes (New England Biolabs). Sequences were separated using gel electrophoresis and harvested using Qiagen gel extraction kit. Corresponding wild type sequences were ligated into the construct using T4 Ligase (New England Biolabs). To ensure correct sequence the constructs were sequenced (Genewiz) and tested with different restriction enzymes in combination with gel electrophoresis to measure length and conformation of the gene. cRNA for injection of all constructs was prepared from linearized DNA using the T7 mMessage mMachine transcription kit (Ambion) according to the manufactures instructions.” left out
as §5, §6

[7] = system: Caco-2 cells

What does the source list for `CC/C=C\C/C=C\C/C=C\C/C=C\C/C=C\C/C=C\CCC(=O)NCC(=O)O` [DHA-Gly, docosahexaenoyl glycine]?
apparent pKa lower than that of DHA ([1]; Kv7.1/KCNE1): about 1.5 pH unit; pKa ([1]; Kv7.1/KCNE1, 70 μM): 6.9; efflux ratio [2]: 3.6; concentration able to restore the QT intervals [3]: 10 µM

With `CC/C=C\C/C=C\C/C=C\C/C=C\C/C=C\C/C=C\CCC(=O)O` [DHA, 4,7,10,13,16,19-all-cis-docosahexaenoic acid] as the compound, how does the “c0.5 (pH-dependence of the G(V) shift)” value ([1]; Kv7.1/KCNE1, 70 μM) read?
Its value is 3.3*10^−9.

What about the “ΔVmax (pH-dependence of the G(V) shift)” value ([1]; Kv7.1/KCNE1, 70 μM) of the same compound?
The value was −26.6 mV.

What about the “G(V) shift of a representative cell (control curve shifted)” value (from here on “G(V) shift of a representative cell”) ([1]; Kv7.1/KCNE1, 70 μM, pH 9) of the same compound?
The value was −35 mV.

And the pKa ([1]; Kv7.1/KCNE1, 70 μM)?
The pKa was 8.5.

What about the maximal conductance ([4]; Kv7.1) of the same compound?
The maximal conductance was “without affecting maximal conductance”.

What about the “G(V) shift” value ([4]; Kv7.1, 7 μM) of the same compound?
The value was −3.0±0.5 mV.

What about the “G(V) shift predicted from the concentration-response curve” value ([4]; Kv7.1, 35 μM DHA alone) of the same compound?
Its value is −6.5 mV.

What about the “c0.5 (pH-dependence of the G(V) shift)” value ([4]; Kv7.1, 70 μM) of the same compound?
The value was 1.8*10^−8.

And the “ΔVmax (pH-dependence of the G(V) shift)” value ([4]; Kv7.1, 70 μM)?
The value was −30.7 mV.

And the “G(V) shift” value ([4]; Kv7.1, 70 μM, pH 10)?
Its value is “about −30 mV”.

What about the “G(V) shift” value ([4]; Kv7.1, external pH 6.5) of the same compound?
The value was “abolishes the DHA effect”.

What about the “estimated maximum shift ΔVmax (concentration dependence)” value ([4]; Kv7.1, pH 7.4) of the same compound?
Its value is −15.8±2.3 mV and −15.8 mV.

And the EC50 ([4]; Kv7.1, pH 7.4, read-out: c0.5, concentration causing 50% of the maximum shift)?
The EC50 was 50 ± 20 µM.

What about the “ΔVmax (concentration-response)” value ([4]; Kv7.1, pH 9.0) of the same compound?
Its value is −27.7 mV.

What about the EC50 ([4]; Kv7.1, pH 9.0, read-out: C0.5 (concentration-response)) of the same compound?
The EC50 was 10 µM.

What about the pKa ([4]; human, Xenopus laevis oocytes expressing human Kv7.1, Kv7.1, 70 μM, read-out: apparent pKa as reported by the shift of the G(V) relation) of the same compound?
The pKa was ~7.7.

What about the “G(V) shift of a representative cell” value ([5]; KCNE1-Kv7.1) of the same compound?
Its value is “+5.5 mV”.

What about the “G(V) shift of a representative cell” value ([6]; KCNE1-Kv7.1-Kv7.1) of the same compound?
The value was “+7 mV”.

For `CC(C)NCC(O)COc1cccc2ccccc12` (centres unmarked) [propranolol, reference compound], which “permeability coefficient (Papp)” value [7] is on record?
Its value is 20×10^−6 cms^−1.

Which “ΔV1/2 ± SEM (G(V) shift)” value ([4]; Kv7.1, 70 μM, pH 7.4) does the source give for `CC/C=C\C/C=C\C/C=C\C/C=C\C/C=C\C/C=C\CCC(=O)OC` [DHA-me, 4,7,10,13,16,19-all-cis-docosahexaenoic acid methyl ester] here?
The value was “+2.8 ± 2.5 mV”.

And the “ΔV1/2 ± SEM (G(V) shift)” value ([4]; Kv7.1, 70 μM, pH 7.4, listed as DHA methyl ester)?
The value was “no effect”.

What about the “ΔV1/2 ± SEM (G(V) shift)” value ([4]; Kv7.1, 70 μM, pH 7.4, listed as DHA-Me) of the same compound?
The value was “+2.8±2.5 mV”.

What about the “ΔV1/2 ± SEM (G(V) shift)” value ([5]; pH 7.4) of the same compound?
Its value is “+5.0 ± 1.3 mV”.

And the “ΔV1/2 ± SEM (G(V) shift)” value ([5]; pH 9.0)?
Its value is “+3.6 ± 2.6 mV”.

What about the “ΔV1/2 ± SEM (G(V) shift)” value ([6]; pH 7.4) of the same compound?
Its value is “+5.7 ± 0.9 mV”.

What about the “ΔV1/2 ± SEM (G(V) shift)” value ([6]; pH 9.0) of the same compound?
The value was “+8.2 ± 2.7 mV”.

Which Kv7.1 affinity ([4]; compared among NAA, Lin-Gly, Ste-Gly, DHA-Gly, TTA, HTA) does the source give for `CCCCC/C=C\C/C=C\CCCCCCCC(=O)NCC(=O)O` [Lin-Gly, linoleoyl-glycine] here?
The Kv7.1 affinity was “lowest affinity”.

For `CCCCCCCC/C=C\CCCCCCCC(=O)O` [OA, oleic acid], which “ΔV1/2 ± SEM (G(V) shift)” value ([4]; Kv7.1, 70 μM, pH 7.4) is on record?
The value was −1.0±0.5 mV.

And the “ΔV1/2 ± SEM (G(V) shift)” value ([4]; Kv7.1, 70 μM, pH 7.4, listed as Oleic acid)?
The value was “no effect”.

Which results are given for `CCCCC/C=C\C/C=C\C/C=C\C/C=C\CCCCN` [AA+, arachidonyl amine]?
ΔV1/2 ± SEM (G(V) shift) ([1]; 70 μM, pH 7.4): +22.6 ± 1.9 mV; ΔV1/2 ± SEM (G(V) shift) ([1]; 70 μM, pH 7.4, listed as arachidonyl amine): +22.6±1.9 mV; G(V) shift of a representative cell (control curve shifted) ([1]; Kv7.1/KCNE1, 70 μM, pH 7.4): +28 mV; G(V) shift ([1]; Kv7.1/KCNE1, pH 7): about +25 mV; Kv7.1 channel inactivation ([4]; Kv7.1): induced Kv7.1 channel inactivation; ΔV1/2 ± SEM (G(V) shift) ([4]; Kv7.1, 70 μM, pH 7.4): +9.7 ± 2.1 mV; ΔV1/2 ± SEM (G(V) shift) ([4]; Kv7.1, 70 μM, pH 7.4, listed as Arachidonyl amine): +9.7±2.1 mV; ΔV1/2 ± SEM (G(V) shift) ([4]; Kv7.1, 70 μM, pH 7.4, listed as arachidonyl amine): +9.7±2.1 mV
